Measured values from PMC12519234 (2025).

Key:
[1] = test system: Tte preQ1 U22Ap (RNA, riboswitch, 2-aminopurine at 22 (replaces U)) CUGGGUCGCAGUAACCCCAGUUAACAAAACAAG; assay: stopped-flow 2-aminopurine fluorescence; conditions: 100 mM KCl, 2 mM MgCl2; 50 mM MOPS pH 7.5, 25 °C
[2] = test system: preQ1-like (40 nt, lmo2684 upstream region) (RNA, mRNA element) UACAGCUAGCUAGCUGAAAAUUAUAAAAAACUAAAGAGGU; assay: 1H NMR imino spectra; conditions: 25 mM NaCl, 2 mM MgCl2; 15 mM sodium cacodylate pH 6.5, 25 °C, 0.15 mM RNA; no high affinity association
[3] = test system: queT (41 nt) (RNA, riboswitch) ACGUGGUUCAUUCAUACCAUCCCACGUAAAAAAACUAGGAG; assay: 1H NMR imino spectra; conditions: 25 mM NaCl, 2 mM MgCl2; 15 mM sodium cacodylate pH 6.5, 25 °C, 0.15 mM RNA
[4] = test system: Tte preQ1 U22Ap (RNA, riboswitch, 2-aminopurine at 22 (replaces U)) CUGGGUCGCAGUAACCCCAGUUAACAAAACAAG; assay: 2-aminopurine fluorescence titration; conditions: 100 mM KCl, 2 mM MgCl2; 50 mM MOPS pH 7.5, 25 °C, 0.5 µM RNA
[5] = test system: Tte preQ1 U22Ap (RNA, riboswitch, 2-aminopurine at 22 (replaces U)) CUGGGUCGCAGUAACCCCAGUUAACAAAACAAG; assay: stopped-flow 2-aminopurine fluorescence; koff = kon × KD; conditions: 100 mM KCl, 2 mM MgCl2; 50 mM MOPS pH 7.5, 25 °C; calculated, one approximate value for preQ1 and 4a

kon(preQ1) [1]: 13000 M⁻¹ s⁻¹
binding [2]: no
binding [3]: yes
KD(preQ1) [4]: 64 nM
koff [5]: ~ 7.5 × 10^−4 s^−1
Structure (SMILES): NCc1c[nH]c2nc(N)[nH]c(=O)c12
